Reference: ChEMBL document CHEMBL1158225, “Antiplatelet flavonoids from seeds of Psoralea corylifolia” (J Nat Prod, 1996)
pIC50: −log10 of the molar value. Activity calls are given as the source filed them. No cut-off for these calls is given here.

What was measured:
Assay type in all cases: functional, cell-based
Settings in all cases: Oryctolagus cuniculus
[1] = (§1) Antiplatelet activity against rabbit platelet assessed as inhibition of platelet-activating factor-induced platelet aggregation preincubated for 3 mins by turbidimetric method
Platelet [2] = assay: Antiplatelet activity against rabbit platelet assessed as inhibition of collagen-induced platelet aggregation at 300 uM preincubated for 3 mins by turbidimetric method
Platelet [3] = assay: Antiplatelet activity against rabbit platelet assessed as inhibition of arachidonic acid-induced platelet aggregation at 300 uM preincubated for 3 mins by turbidimetric method
Platelet [4] = assay: Antiplatelet activity against rabbit platelet assessed as inhibition of platelet-activating factor-induced platelet aggregation at 300 uM preincubated for 3 mins by turbidimetric method
[5] = Antiplatelet activity against rabbit platelet assessed as inhibition of collagen-induced platelet aggregation preincubated for 3 mins by turbidimetric method
[6] = Antiplatelet activity against rabbit platelet assessed as inhibition of arachidonic acid-induced platelet aggregation preincubated for 3 mins by turbidimetric method
Platelet [7] = assay: as §1

SMILES | pIC50 [1] | pIC50 [5] | pIC50 [6] | also measured
CCCCCCCCCCCCCCCCCCNC(=O)OCC(COP(=O)([O-])OCC[n+]1ccsc1)OC (configuration not stated) | 5.96 |  |  | 
CC(C)=CCc1cc2c(cc1O)O[C@H](c1ccc(O)cc1)CC2=O |  |  |  | Activity (Platelet [2]): inactive; Activity (Platelet [3]): inactive; Activity (Platelet [4]): inactive
CC(=O)Oc1ccccc1C(=O)O [ASPIRIN] |  | 4.52 |  | 
CC(C)=CCc1c(O)ccc(C(=O)/C=C/c2ccc(O)cc2)c1O [ISOBAVACHALCONE] | 4.38 | 4.19 | 6.30 | 
CC(C)=CCc1cc(-c2coc3cc(O)ccc3c2=O)ccc1O [NEOBAVAISOFLAVONE] | 5.60 | 4.20 | 5.11 | Activity (Platelet [7]): Dose-dependent effect
